| SMILES | melting point [°C] |
| --- | --- |
| Cc1ccc(C=CCN2CCc3nc(N)sc3CC2)cc1 | 126 to 130 |
| CC(=O)c1c(Cl)c(Cl)c([N+](=O)[O-])c2c1OCCO2 | 181 to 182 |
| Cc1noc(NS(=O)(=O)c2ccsc2COc2ccc3c(c2Cl)OCO3)c1Br | 152 to 154 |
| COC(=O)[C@@H]1COC(=S)N1Cc1ccccc1 | 101 to 102 |
| N#Cc1ccc(-c2csc(N3C(=O)OCC34CC4)n2)cc1 | 219 to 221 |
| COC(=O)c1ccc(C(F)(F)F)[nH]c1=O | 63 to 64 |
| COC(=O)c1ccc(C(F)(F)F)nc1S(N)(=O)=O | 187 to 188 |
| CC(C)(C)c1nc2cc(N3CCCCC3)c([N+](=O)[O-])cc2s1 | 147 to 148 |
| O=c1oc(=O)c2ccsc2c2sccc12 | 260 to 263 |
| NS(=O)(=O)c1cccnc1N1CCSCC1 | 176 to 177 |
| N#Cc1ccc2c(c1)c1c(n2Cc2cccc(F)n2)CCC(NC(=O)C2CC2)C1 (stereo not given) | 243 to 245 |
| CCCCc1nc(I)c(C=O)[nH]1 | 80 to 85 |
| O=c1[nH]c2cscc2c(=O)n1CCN1CCN(c2ccc(F)cc2)CC1 | > 250 |
| Cc1cccc2c1OC(c1ccccc1)([N+](=O)[O-])C2 (stereo not given) | 122 to 126 |
| NS(=O)(=O)CCCSc1ccc2ncnn2n1 | 130 to 131 |
| O=C(O)c1c[nH]c(=S)n1C1Cc2cc(F)c(F)cc2C1 | 233 to 234 |
| COc1cccc2c1C[C@H]1C[C@@H](CCN3CCC(O)(c4ccc(Cl)cc4)CC3)CN(C)[C@@H]1C2 | 212 to 215 |
| CC(C)C(C)(C#N)N1C(=O)c2ccc3ccsc3c2C1=O (stereo not given) | 99 to 107 |
| CCCCCCCCCCCCCCCCCC(=O)NC#N | 74 to 75 |
| CC12C=CCC1c1ccc3cc(O)ccc3c1CC2 (stereo not given) | 162 to 163 |
| CCOCCn1cc2c(C3C(=O)Nc4ccc(Cl)cc43)nc(Cl)nc2n1 (stereo not given) | > 300 |

| SMILES | melting point [°C] |
| --- | --- |
| O=C(c1ccc(Br)cc1)c1ccc(O)cc1F | 62 to 63 |
| CC(=O)Nc1ccc([N+](=O)[O-])c(Cl)c1 | 134 to 136 |
| N#CCSc1nc(Cl)cc(-c2ccccc2)n1 | 136 to 141 |
| O=C(N1CC(CCl)c2c1cc([N+](=O)[O-])c1ccccc21)C(F)(F)F (stereo not given) | 182 |
| O=C1c2ccccc2Nc2ccccc2N1CCCCl | 127 to 131 |
| O=C(Nc1ccc(-n2nc(C(F)(F)F)cc2Br)cc1)c1cccc(F)c1F | 109 to 112 |
| Cc1nc(N2CCN(CC3CCC3)C2=O)sc1C(=O)NCc1cccnc1 | 136 to 137 |
| O=C(O)CCCCN1CCN(C2=Nc3ccccc3Cc3ccccc32)CC1 | 235 to 237 |
| CN(Cc1ccccn1)C(=S)Nc1ccc(C#N)cc1 | 171 |
| Cc1ccc(C(=O)NN2CCOCC2)c(Nc2ccc3cn[nH]c3c2)n1 | 265 to 268 |
| CC(C)(C)OC(=O)C[C@H](NC(=O)c1cccc(NC(=O)Cc2ccc(C(N)=S)cc2)c1)C(=O)N[C@@H](Cc1ccccc1)C(=O)OC(C)(C)C | 99 |
| CCC(=O)NC[C@H]1CN(c2ccc(N3CCC(=CC#N)CC3)c(F)c2)C(=O)O1 | 200 to 202 |
| CC1CCN(CCC(=O)Nc2ccc3c(=O)c4ccc(NC(=O)CCN5CCC(C)CC5)cc4[nH]c3c2)CC1 | > 320 |
| CCC1(C)Cc2c(C)c(Cl)c(C=O)c(C)c2C1 (stereo not given) | 89 to 90 |
| CSCC[C@H](NC(=O)N[C@@H](CCSC)C(=O)O)C(=O)O | 167 to 180 |
| Cc1ccc(N2CSC(=NCc3ccc(C(F)(F)C(F)(F)F)cc3)N(CC(F)(F)F)C2=O)cc1 | 103 to 104 |
| CS(=O)(=O)Oc1ccc(=O)[nH]n1 | 148 |
| Nc1ccc(Sc2cccc3nccn23)cc1 | 167 to 168 |
| O=C(NCCO)c1csc(C(=O)NCCO)n1 | 155 to 158 |
| CCOC(=O)COc1ccc2c(c1)C(=O)CC1(CCCCC1)O2 | 72 to 73 |

The remaining lines, values ahead:

| melting point [°C] | SMILES |
| --- | --- |
| 127 to 129 | COCCOc1ccc(CCCOc2nn(C)cc2CC(=O)O)c(Oc2ncc(C(F)(F)F)cc2Cl)c1 |
| 74 to 76 | O=C(NCCSCc1cccc(Br)c1)c1c(Cl)cccc1Cl |
| 109 to 111 | CCOc1ccc2c(-c3ccccc3)c([N+](=O)[O-])oc2c1 |
| 194 to 197 | COc1ccc(C2C(C#N)=C(N)OC3=C2C(=O)CC(c2cccc4ccccc24)C3)cc1 (stereo not given) |
| 182 to 188 | CNC(=O)c1ccc(-c2n[nH]c3c2Cc2ccccc2-3)cc1 |
| 125 to 130 | COCCc1nc2c(N)nc3ccccc3c2n1CC(C)(C)CN(C(N)=O)c1ccccc1 |
| 244 | COc1ccc2c(c1Cl)S(=O)(=O)c1ccccc1N2C |
| 166 to 167 | CC1=C(C(=O)OC(C)C)C(c2cccc([N+](=O)[O-])c2)N(C(=O)NOCc2ccccc2)C(=O)N1 (stereo not given) |
| 97 to 98 | Cc1oc(-c2ccccc2)nc1COc1ccc(Cn2cc(CCC(=O)O)c(C(C)C)n2)cc1 |
| 177 to 178 | Cc1c(NC(=O)CC(C)(C)C)cc2c(c1C)OCC2c1ccc(C(C)C)cc1 (stereo not given) |
| 245 to 248 | O=C(Nc1cccc(F)c1)NC1CCN(S(=O)(=O)c2ccc(Cl)cc2)CC1 |
| 216 to 218 | CC(C)C(=O)NCCc1ccc(NC(=O)C=C2CC(C(=O)O)Nc3cc(Cl)cc(Cl)c32)cc1 (racemic) |
| 100 to 101 | CON1C(=O)[C@H](Cc2c[nH]c3ccccc23)NC(=O)[C@@H]1CC(C)C |
| 74 to 76 | CCON=C(c1ccccc1COc1cc(C)ccc1C)c1ccnn1C |
| 151 to 153 | COc1nc(NC(=O)NS(=O)(=O)c2cccc3cccnc23)nc(OC)n1 |
| > 300 | Cc1c(-c2cnco2)[nH]c(=O)c2c1ccc1nc(Nc3c(Cl)cccc3Cl)n(C)c12 |
| 219 to 223 | COc1c([N+](=O)[O-])cc2cc(-c3ccc([N+](=O)[O-])cc3)c(=O)oc2c1OC |
| 115 to 120 | C=CC(=O)OCCOc1ccc(-c2nc(-c3ccc(Cl)cc3)nc(-c3ccc(OCCOC(=O)C=C)cc3O)n2)c(O)c1 |
| 179 to 180 | O=C(Nc1c(C(O)(C(F)(F)F)C(F)(F)F)ccc2ccccc12)c1ccc(OC(F)(F)F)cc1 |
| 163 to 165 | COc1ccc(NC(=O)C=NO)cc1C |
| 278 to 280 | COc1cc(C=CC(=O)Nc2cnc3cc(C)c(C)cc3c2-c2ccccc2Cl)cc(OC)c1O |
| 203 to 204 | COC1OCC[C@@H]1N(C(=O)CNC(=O)COc1ccc2c(c1)Nc1ccccc1S2)[C@@H](Cc1ccccc1)C(N)=O (stereo not given in full) |
| 206 to 207 | COCc1ccn2c(C)c(CCc3ccc4nc(N)oc4c3)nc2c1 |
| 189 to 190 | COc1ccc2nc(-c3ccc(OC)c(F)c3)cc(C#N)c2c1 |
| 205 to 208 | COc1ccc(OCC(O)CN2CCN(c3ccccc3C(=O)O)CC2C)c(C(C)(C)C)c1 (stereo not given) |
| 184 | CCOC(=O)Cn1c2ccc(Cl)ccc-2c(C(C)=O)c1=O |
| 147 to 150 | Oc1ccc2c(c1)C[C@@H](NC[C@H](O)c1ccc(OCc3ccccc3)c(CCOCc3ccccc3)c1)CC2 |
| 236 to 238 | CC(=O)Nc1cc(=O)c2cc(Oc3ccccc3)c(NS(C)(=O)=O)cc2o1 |
| 247 | Cc1ccc2[nH]c(=S)c(C(=O)c3ccc([N+](=O)[O-])cc3)c(O)c2c1 |
